# Assay results reported in patent US12649725B2 (Worcester Polytechnic Institute, priority 2020, dated 2026).
# Read-outs that look alike come from different tables or passages of the source.
# Assays:
# [1] = Cytotoxicity assay (CellTiter-Glo) in Jurkat cells; format: cell-based; details: human; Jurkat cells, 48 hours post drug incubation, cell viability by CellTiter-Glo, triplicate; read-out: Chromenone cytotoxicity IC50, Jurkat
# Method: (§1) Jurkat and L5178Y cells were cultured in RPMI 1640 (ATCC), HL60 cells were cultured in Iscove's Modified Dulbecco's Medium (IMDM, ATCC), KB and MCF7 cells were cultured in Eagles Minimum Essential Medium (EMEM, ATCC), and SKOV3 cells in McCoy's 5a Medium (ATCC) supplemented with 10% Heat Inactivated Fetal Bovine Serum (FBS), and Penicillin and Streptomycin (P/S) at 37° C. in a 5% CO2 incubator.
# (§2) Proliferating cells were seeded at approximately 20×10^3 cells per 50 μL per well into 96 well plates using a MultiFlo FX multi-mode dispenser (BioTek). On reaching ≈40% cell density, the cells were then incubated with varying concentrations (195 nM to 200 μM final) of test samples using a Biomek FXP Automated Workstation (Beckman Coulter). 48 hours post drug incubation, cell viability was determined using Promega's CellTiter-Glo Luminescent Cell Viability Assay according to the manufacturer's protocol on a plate reader (EnVision from PerkinElmer) in Luminescence mode. In each experiment, each unique condition (i.e., different sample type and concentration) was tested in triplicate. […] IC50 values for each treatment were calculated using Graph-Pad Prism 8.0 Software.
# [2] = Cytotoxicity assay (CellTiter-Glo) in KB cells; format: cell-based; details: human, 48 hours post drug incubation, cell viability by CellTiter-Glo, triplicate, read-out: Chromenone cytotoxicity IC50, KB
# Method: as §1
# (§3) Proliferating cells were seeded at approximately 20×10^3 cells per 50 μL per well into 96 well plates using a MultiFlo FX multi-mode dispenser (BioTek). On reaching ≈40% cell density, the cells were then incubated with varying concentrations (195 nM to 200 μM final) of test samples using a Biomek FXP Automated Workstation (Beckman Coulter). 48 hours post drug incubation, cell viability was determined using Promega's CellTiter-Glo Luminescent Cell Viability Assay according to the manufacturer's protocol on a plate reader (EnVision from PerkinElmer) in Luminescence mode. In each experiment, each unique condition (i.e., different sample type and concentration) was tested in triplicate. The percentage of test sample induced toxicity was calculated with respect to DMSO treated cells and graphed to give dose response curves. IC50 values for each treatment were calculated using Graph-Pad Prism 8.0 Software.
# [3] = Cytotoxicity assay (CellTiter-Glo) in L5178Y cells; format: cell-based; details: mouse, 48 hours post drug incubation, cell viability by CellTiter-Glo, triplicate, read-out: Chromenone cytotoxicity IC50, L5178Y
# Method: as §1, §2
# L5178Y cells [4] = details: read-out: Cytotoxicity IC50, L5178Y (natural product comparator), other cells 'Not available'; cited from earlier work
# KB cells [5] = details: read-out: Cytotoxicity IC50, KB (natural product comparator), other cells 'Not available'; cited from earlier work
# Jurkat cells [6] = assay: Cytotoxicity assay (CellTiter-Glo) in Jurkat cells; format: cell-based; details: for Cytotoxicity in Jurkat screening (in words): cytotoxicity screening in Jurkat cell lines, FIG. 20
# Method: as §1, §2
# KB cells [7] = assay: Cytotoxicity assay (CellTiter-Glo) in KB cells; format: cell-based; details: 48 hours post drug incubation, cell viability by CellTiter-Glo, triplicate, read-out: Chromenone cytotoxicity IC50, KB
# Method: as §1, §3
# HL60 cells [8] = assay: Cytotoxicity assay (CellTiter-Glo) in HL60 cells; format: cell-based; details: 48 hours post drug incubation, cell viability by CellTiter-Glo, triplicate
# Method: as §1, §2
# L5178Y cells [9] = assay: Cytotoxicity assay (CellTiter-Glo) in L5178Y cells; format: cell-based; details: 48 hours post drug incubation, cell viability by CellTiter-Glo, triplicate
# Method: as §1, §2
# Jurkat cells [10] = details: comparator natural product, other cells 'Not available', read-out: Cytotoxicity IC50, Jurkat (natural product comparator); cited from earlier work
# [11] = Cytotoxicity assay (CellTiter-Glo) in HL60 cells; format: cell-based; details: human, 48 hours post drug incubation, cell viability by CellTiter-Glo, triplicate, read-out: Chromenone cytotoxicity IC50, HL60
# Method: as §1, §2
# HL60 cells [12] = details: comparator natural product, other cells 'Not available', read-out: Cytotoxicity IC50, HL60 (natural product comparator); cited from earlier work
compound,measurement,setting,value
"COc1ccc(-c2ccc(OC)c3c(=O)c(C(C)=O)c(C)oc23)c2oc(C)c(C(C)=O)c(=O)c12 [Compound 42, 3,3′-Diacetyl-5,5′-dimethoxy-2,2′-dimethyl-4H,4′H-[8,8′-bichromene]-4,4′-dione]",IC50 at 48 h,[1],> 50 µM
same,IC50 at 48 h,[2],> 50 µM
same,IC50 at 48 h,[3],> 50 µM
Dicerandrol C,IC50,L5178Y cells [4],10 µM
Phomoxanthone B,IC50,KB cells [5],4.1 µM
3-Acetyl-5-hydroxy-2-methyl-4H-1-benzopyran-4-one Dimer [Compound 43],IC50,"Jurkat cells [6]; Jurkat cells, 48 hours post drug incubation, cell viability by CellTiter-Glo, triplicate, read-out: Chromenone cytotoxicity IC50, Jurkat",39 ± 1.1 µM
same,IC50,KB cells [7],> 50 µM
same,IC50,"HL60 cells [8]; read-out: Chromenone cytotoxicity IC50, HL60",> 50 µM
same,IC50,"L5178Y cells [9]; read-out: Chromenone cytotoxicity IC50, L5178Y",> 50 µM
"COC(=O)C(C)(C)c1cc(=O)c2c(O)ccc(-c3ccc(O)c4c(=O)cc(C(C)(C)C(=O)OC)oc34)c2o1 [Compound 28c, Dimethyl 2,2′-(5,5′-Dihydroxy-4,4′-dioxo-4H,4′H-[8,8′-bichromene]-2,2′-diyl)bis(2-methylpropanoate)]",Cytotoxicity in Jurkat screening (in words),Jurkat cells [6],highest levels of cytotoxicity
same,IC50 at 48 h,[2],> 50 µM
same,"Chromenone cytotoxicity IC50, HL60",HL60 cells [8],low micromolar range
same,"Chromenone cytotoxicity IC50, L5178Y",L5178Y cells [9],low micromolar range
same,IC50 at 48 h,[3],23 µM
Phomoxanthone A,IC50,KB cells [5],0.99 µM
same,IC50,Jurkat cells [10],0.5 µM
same,IC50,L5178Y cells [4],0.3 µM
COc1ccc(-c2ccc(OC)c3c(=O)c(C(C)=O)c([C@@H](OC(C)=O)C(C)C)oc23)c2oc([C@@H](OC(C)=O)C(C)C)c(C(C)=O)c(=O)c12 [Compound 48c],IC50 at 48 h,[1],> 50 µM
same,IC50 at 48 h,[2],> 50 µM
same,IC50 at 48 h,[11],> 50 µM
"COC(=O)C(C)(C)c1cc(=O)c2c(OC)ccc(-c3ccc(OC)c4c(=O)cc(C(C)(C)C(=O)OC)oc34)c2o1 [Compound 39c, Dimethyl 2,2′-(5,5′-Dimethoxy-4,4′-dioxo-4H,4′H-[8,8′-bichromene]-2,2′-diyl)bis(2-methylpropanoate)]",Cytotoxicity in Jurkat screening (in words),Jurkat cells [6],highest levels of cytotoxicity
same,IC50 at 48 h,[11],24 µM
same,"Chromenone cytotoxicity IC50, HL60",HL60 cells [8],low micromolar range
same,"Chromenone cytotoxicity IC50, L5178Y",L5178Y cells [9],low micromolar range
Versixanthone F,IC50,HL60 cells [12],1 µM
"O=c1cc(C2CCCO2)oc2c(-c3ccc(O)c4c(=O)cc(C5CCCO5)oc34)ccc(O)c12 (stereo not shown) [Compound 28e, 5,5′-Dihydroxy-2,2′-bis(tetrahydrofuran-2-yl)-4H,4′H-[8,8′-bichromene]-4,4′-dione]",Cytotoxicity in Jurkat screening (in words),Jurkat cells [6],highest levels of cytotoxicity
same,IC50 at 48 h,[2],> 50 µM
same,IC50 at 48 h,[11],> 50 µM
same,IC50 at 48 h,[3],> 50 µM
"COC(=O)C(C)(C)c1cc(=O)c2c(OC)c(-c3ccc4oc(C(C)(C)C(=O)OC)cc(=O)c4c3OC)ccc2o1 [Compound 35c, Dimethyl 2,2′-(5,5′-Dimethoxy-4,4′-dioxo-4H,4′H-[6,6′-bichromene]-2,2′-diyl)bis(2-methylpropanoate)]",Cytotoxicity in Jurkat screening (in words),Jurkat cells [6],highest levels of cytotoxicity
same,IC50 at 48 h,[2],41 ± 1.1 µM
